This data set in a line: Myelin figure formation on exposing the lipids-mimicking substrate to surfactant (microscopy). The conditions noted are these: aqueous solution 5.0 mg/cm^3, 25° C., 6 hours, lipid membrane 50 μm. On the procedure:
Multiple substrates mimicking intercellular lipids in stratum corneum, each having a lipid membrane controlled to a thickness of 50 μm were exposed to an aqueous solution (5.0 mg/cm^3) of SDS (99.0%) (Nacalai Tesque, Inc., Kyoto, Japan) at a temperature of 25° C. for 6 hours. Each exposed substrate was rinsed with a small amount of water and dried, and used for the following evaluation test.
Upon examination of surfactants other than SDS, a myelin figure was formed with some and not formed with others. For each of the examined surfactants, the shortest distance from the edge of the substrate to the tip of the myelin figure (hereunder referred to as “myelin figure formation distance”) was measured.

For `CCCCCCCCCCCCOS(=O)(=O)[O-].[Na+]` [SDS], the myelin figure formation entry is “formation of a myelin figure within a constant range”.
